Measured values taken from EP4806904A1, “POLYPEPTIDE AND USE THEREOF” (Sichuan Gooddoctor Panxi Pharmaceutical Co. Ltd, priority 2023, dated 2026).
Where a SMILES comes first, the peptide text is derived from it. [ ]: non-standard residue; d: D form.

Assays:
[1] = test system: Brain microvascular endothelial cells (BMECs) and brain microvascular smooth muscle cells (BMVSMCs); assay: In vitro angiogenesis assay, BMEC/BMVSMC co-culture on matrigel; assay type: cell-based, mouse; settings: 0.1 mg/L, 48 h
Description: First, mouse brain microvascular pellets were obtained by differential centrifugation. Brain microvascular endothelial cells (BMECs) and brain microvascular smooth muscle cells (BMVSMCs) were isolated by digestion with collagenase II, respectively, and cultured in a cell incubator with 5% CO2 at 37°C . Cells at passages 3-6 in good growth condition and logarithmic growth phase were selected for the in vitro angiogenesis assay.
One night before the experiment, the high-concentration matrigel was transferred from a -20°C or -80°C refrigerator to a 4°C refrigerator and allowed to thaw slowly overnight in the 4°C refrigerator. Pipette tips required for the formal experiment were sterilized in advance and pre-cooled in a 4°C refrigerator for subsequent use.
On the day of the experiment, the matrigel was added to a 96-well plate 1 h in advance and placed in a 37°C cell incubator until it solidified. Subsequently, the cells were washed 2 times with 2 mL of PBS buffer, followed by digestion with 0.25% trypsin to obtain EC and VSMC pellets, respectively, and cell counting was performed. A uniform cell suspension containing 5×10^3 BMVSMCs and 1×10^3 BMECs per well was then seeded into the 96-well plate pre-coated with the matrigel, and cultured in a 37°C, 5% CO2 cell incubator for 3 days.
During the culture period, tube formation was observed daily. The medium was changed on day 4, followed by treatment with the polypeptide of the invention at 0.1 mg/L or VEGFA at 10/15/20 ng/L for 48 h, respectively.
On day 5, the cell nuclei and live cells were labeled with Hoechst 33342 and Calcein AM, respectively. High-content brightfield and fluorescence imaging were then performed using a high-content screening system. Finally, angiogenesis in each treatment group was analyzed using the Angiogenesis Analyzer plugin for ImageJ, and statistical analysis was carried out with GraphPad Prism 10.

[2] = test system: primary neural stem cells (NSCs); assay: Differentiation of primary neural stem cells, βIII-tubulin fluorescence and Neurite Outgrowth Assay; assay type: cell-based, SD rats; settings: 100 µg/mL; for mean fluorescence intensity of the neuronal marker protein βIII-tubulin / neurite outgrowth (total neurite length, maximum neurite length, neurite terminals, neurite initiation points) / Longest neurite length / Average fluorescence intensity / Neurite initiation points (branches) / Number of neurite terminals / Total neurite length: 4 days; for mean fluorescence intensity of the neuronal marker protein βIII-tubulin: vs blank control group; for mean fluorescence intensity of the neuronal marker protein βIII-tubulin / neurite outgrowth (total neurite length, maximum neurite length, neurite terminals, neurite initiation points): in words; for neurite outgrowth (total neurite length, maximum neurite length, neurite terminals, neurite initiation points): Neurite Outgrowth Assay; for Longest neurite length / Average fluorescence intensity / Neurite initiation points (branches) / Number of neurite terminals / Total neurite length: significance vs blank control group; for Average fluorescence intensity: βIII-tubulin; for differentiation of NSCs into neuronal cells: conclusion based on the results of the two analytical methods
Description: This part of the experiment requires feeding male and female rats in advance, then extracting hippocampal neural stem cells from newborn SD rats within 24 h of birth, culturing them to P3 for identification, and then using them for experiments. • (1) Extraction and culture of primary neural stem cells (NSCs) • (2) NSCs that have been passaged to P3 and have good viability were seeded in differentiation medium (2% FBS+DMEM/F12 1:1 medium) in 48-well plates with a cell concentration of 5×10^4 cells/mL per well. After overnight culture for cell adherence, the cells were treated with drugs; • (3) Drug treatment was applied. The final concentration of the polypeptide of the invention was 100 µg/mL. Meanwhile, nerve growth factor (NGF, 50 ng/mL) was set as the positive control, and the cells were cultured in the incubator for another 4 days; • (4) Immunofluorescence staining (primary antibody βIII-tubulin) was performed after 4 days of treatment. The average fluorescence intensity of βIII-tubulin was analyzed and the Neurite Outgrowth Assay was performed using a high-content cell imaging analysis system.

[3] = significance vs blank control group

Compound	Branch length [1, 3]	mean fluorescence intensity of the neuronal marker protein βIII-tubulin [2]	Branch length ([1]; vs normal group, in words)	number of junctions ([1]; vs normal group, in words)	Cell count [1, 3]	neurite outgrowth (total neurite length, maximum neurite length, neurite terminals, neurite initiation points) [2]	Longest neurite length [2]	Average fluorescence intensity [2]	Number of intersections [1, 3]	angiogenesis-promoting effects ([1]; vs normal group, in words)	Neurite initiation points (branches) [2]	Number of neurite terminals [2]	Total neurite length [2]	differentiation of NSCs into neuronal cells [2]	cell proliferation ([1]; vs normal group, in words)
CC(C)C[C@H](N)C(=O)N1CCC[C@H]1C(=O)N[C@@H](C)C(=O)N1CCC[C@H]1C(=O)O [Compound 31, H-Leu-Pro-Ala-Pro-OH] (H-LPAP-OH)	** (**p < 0.01)	tendency to enhance													
Ac-ALPAPGTL-OH [Compound 9, Ac-Ala-Leu-Pro-Ala-Pro-Gly-Thr-Leu-OH]	* (*p < 0.05)		promoting effects	no significant effects											
H-ALPAP-OH [Compound 30, H-Ala-Leu-Pro-Ala-Pro-OH]	* (*p < 0.05)	significant increase			** (**p < 0.01)	tendency to promote neurite outgrowth	* (*p < 0.05)	*** (***p < 0.001)							
CC(=O)N[C@@H](C)C(=O)N[C@@H](CC(C)C)C(=O)N1CCC[C@H]1C(=O)N[C@H](C)C(=O)N1CCC[C@H]1C(=O)NCC(=O)N[C@H](C(=O)N[C@@H](CC(C)C)C(N)=O)[C@@H](C)O [Compound 42, Ac-Ala-Leu-Pro-D-Ala-Pro-Gly-Thr-Leu-NH2] (Ac-ALP[dA]PGTL-NH2)	* (*p < 0.05)	significant increase	promoting effects	no significant effects	* (*p < 0.05)			* (*p < 0.05)							
H-APGTL-OH [Compound 34, H-Ala-Pro-Gly-Thr-Leu-OH]	** (**p < 0.01)	significant increase			** (**p < 0.01)	promote neurite outgrowth	* (*p < 0.05)	* (*p < 0.05)	** (**p < 0.01)	exhibited angiogenesis-promoting effects	* (*p < 0.05)	** (**p < 0.01)	* (*p < 0.05)	promote the differentiation of NSCs into neuronal cells with stable effects	
H-PIASQHLNLAPAPGTI-OH [Compound 23, H-Pro-Ile-Ala-Ser-Gln-His-Leu-Asn-Leu-Ala-Pro-Ala-Pro-Gly-Thr-Ile-OH]		tendency to enhance				tendency to promote neurite outgrowth						* (*p < 0.05)	* (*p < 0.05)		
CC(C)C[C@H](NC(=O)[C@@H](NC(=O)CN)[C@@H](C)O)C(=O)O [Compound 38, H-Gly-Thr-Leu-OH] (H-Gly-Thr-Leu-OH)	** (**p < 0.01)	tendency to enhance			* (*p < 0.05)				** (**p < 0.01)	exhibited angiogenesis-promoting effects					
H-LPAPG-OH [Compound 33, H-Leu-Pro-Ala-Pro-Gly-OH]	** (**p < 0.01)				** (**p < 0.01)				** (**p < 0.01)	exhibited angiogenesis-promoting effects					
CC(=O)N[C@@H](C)C(=O)N[C@@H](CC(C)C)C(=O)N1CCC[C@H]1C(=O)N[C@@H](C)C(=O)N1CCC[C@@H]1C(=O)NCC(=O)N[C@H](C(=O)N[C@@H](CC(C)C)C(N)=O)[C@@H](C)O [Compound 41, Ac-Ala-Leu-Pro-Ala-D-Pro-Gly-Thr-Leu-NH2] (Ac-ALPA[dP]GTL-NH2)	** (**p < 0.01)				*** (***p < 0.001)	tendency to promote neurite outgrowth			** (**p < 0.01)	exhibited angiogenesis-promoting effects	* (*p < 0.05)		* (*p < 0.05)		
H-PAPGT-OH [Compound 27, H-Pro-Ala-Pro-Gly-Thr-OH]						promote neurite outgrowth	** (**p < 0.01)				** (**p < 0.01)	* (*p < 0.05)	* (*p < 0.05)		
CC(C)C[C@H](NC(=O)[C@@H](NC(=O)CNC(=O)[C@@H]1CCCN1C(=O)[C@H](C)NC(=O)[C@@H]1CCCN1C(=O)[C@H](CC(C)C)NC(=O)[C@@H](C)N)[C@@H](C)O)C(=O)O [Compound 2, H-D-Ala-Leu-Pro-Ala-Pro-Gly-Thr-Leu-OH] (H-[dA]LPAPGTL-OH)	*** (***p < 0.001)				* (*p < 0.05)		** (**p < 0.01)		** (**p < 0.01)	exhibited angiogenesis-promoting effects	* (*p < 0.05)	** (**p < 0.01)	** (**p < 0.01)		
H-ALGAPGTL-OH [Compound 14, H-Ala-Leu-Gly-Ala-Pro-Gly-Thr-Leu-OH]			no significant effects	promoting effects	* (*p < 0.05)				* (*p < 0.05)						
H-ALPAPGT-OH [Compound 39, H-Ala-Leu-Pro-Ala-Pro-Gly-Thr-OH]	** (**p < 0.01)				* (*p < 0.05)				** (**p < 0.01)	exhibited angiogenesis-promoting effects					
CC(C)C[C@H](NC(=O)[C@H](C)N)C(=O)N1CCC[C@H]1C(=O)N[C@@H](C)C(=O)O [Compound 35, H-Ala-Leu-Pro-Ala-OH] (H-ALPA-OH)		significant increase			** (**p < 0.01)	promote neurite outgrowth	** (**p < 0.01)	* (*p < 0.05)			* (*p < 0.05)	* (*p < 0.05)	* (*p < 0.05)	promote the differentiation of NSCs into neuronal cells with stable effects	only promoted cell proliferation
H-LPAPGTL-OH [Compound 29, H-Leu-Pro-Ala-Pro-Gly-Thr-Leu-OH]		tendency to enhance													
H-QLPAPGTL-OH [Compound 22, H-Gln-Leu-Pro-Ala-Pro-Gly-Thr-Leu-OH]	* (*p < 0.05)		promoting effects	no significant effects		promote neurite outgrowth	* (*p < 0.05)				* (*p < 0.05)	* (*p < 0.05)	* (*p < 0.05)		
CC(C)C[C@H](NC(=O)[C@@H](NC(=O)CNC(=O)[C@@H]1CCCN1C(=O)[C@H](C)NC(=O)[C@H]1CCCN1C(=O)[C@H](CC(C)C)NC(=O)[C@H](C)N)[C@@H](C)O)C(=O)O [Compound 4, H-Ala-Leu-D-Pro-Ala-Pro-Gly-Thr-Leu-OH] (H-AL[dP]APGTL-OH)					* (*p < 0.05)		*** (***p < 0.001)				** (**p < 0.01)	** (**p < 0.01)	** (**p < 0.01)		only promoted cell proliferation
H-AKNQLPAPGTLQHFC-OH [Compound 24, H-Ala-Lys-Asn-Gln-Leu-Pro-Ala-Pro-Gly-Thr-Leu-Gln-His-Phe-Cys-OH]		significant increase						* (*p < 0.05)			* (*p < 0.05)				
